Measured values reported in PMC4344389 (Journal of medicinal chemistry, 2015).

Target: T1, ALDH4A1 (Homo sapiens, UniProt P30038)
T1 sequence (P30038 25-563): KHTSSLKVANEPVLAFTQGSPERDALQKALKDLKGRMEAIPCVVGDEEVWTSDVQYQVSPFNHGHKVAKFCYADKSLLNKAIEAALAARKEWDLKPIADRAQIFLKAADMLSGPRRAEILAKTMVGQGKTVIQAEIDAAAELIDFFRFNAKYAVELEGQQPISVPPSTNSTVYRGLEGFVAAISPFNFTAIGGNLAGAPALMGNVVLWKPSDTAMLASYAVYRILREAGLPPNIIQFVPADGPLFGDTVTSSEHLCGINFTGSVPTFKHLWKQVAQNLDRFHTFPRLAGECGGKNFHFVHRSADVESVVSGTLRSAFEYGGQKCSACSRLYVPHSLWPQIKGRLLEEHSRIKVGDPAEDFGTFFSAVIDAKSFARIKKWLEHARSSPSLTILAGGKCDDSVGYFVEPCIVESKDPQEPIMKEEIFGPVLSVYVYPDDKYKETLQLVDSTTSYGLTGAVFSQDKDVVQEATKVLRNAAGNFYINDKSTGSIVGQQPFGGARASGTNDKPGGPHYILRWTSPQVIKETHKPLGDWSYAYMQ
Test: Aldehyde dehydrogenase selectivity test
Assay type: biochemical
Conditions: 20 µM compound

CC(C)CCn1c(CN2CCN(C(=O)c3ccco3)CC2)nc2c1c(=O)n(C)c(=O)n2C [CM026]
effect on ALDH4A1: no effect
